Assay results taken from US5856506A, “Phosphatase inhibitors and methods of use thereof” (University of Pittsburgh, priority 1997, dated 1999).

Key:
Assay type in all cases: biochemical
PP2A = PP2A (Bos taurus, UniProt P67774); test: Phosphatase activity by [32P] release from phosphorylase-a or phosphohistone (Honkanen method); settings: 100 μM inhibitor; none = 100; read-out: PP2A, percent inhibition relative to control (100%)
Protocol: (§1) It has been found in accordance with the present invention that compounds of formula I are capable of inhibiting serine/threonine protein phosphatases. Inhibition of serine/threonine protein phosphatases is defined herein as inhibition of the activity of one or more of PP1, PP2A or PP3 at a concentration of 100 μM or less of the inhibitor compound. In a preferred embodiment, the activity of the phosphatase is inhibited by at least 10%. In more preferred embodiments, the activity of the phophatase is inhibited by at least 25%, or even more preferably, by at least 50%. Inhibition of PP1, PP2A or PP3 can be assessed by methods known to one of ordinary skill in the art. Suitable assays are described, for example by Honkanen et al. (1994) Toxicon 32:339 and Honkanen et al. (1990) J. Biol. Chem. 265: 19401, the disclosures of which are incorporated herein by reference. Briefly, phosphatase activity is determined by quantifying the [^32 p] released from a ^32 p-labeled substrate such as phosphohistone or phosphorylase-a. Decreased [^32 p] release in the presence of the compounds of the present invention relative to control samples provides a measure of the ability of the compounds of the invention to inhibit PP1, PP2A or PP3.
(§2) Phosphatase activity and the inhibitory activity of the compounds of Table 1 were determined by the method of Honkanen et al. (1994) Toxicon 32:339. Briefly, phosphatase activity against phosphorylase-a or phosphohistone was 25 determined by the quantification of liberated [^32 p]. Assays, 80 μl total volume, containing 50 mM Tris-HCl, pH 7.4, 0.5 mM DTT, 1 mM EDTA (assay buffer) and [^32 p]phosphoprotein (1-2 μM PO4), were conducted as described previously (Honkanen et al., 1991 Mol. Pharmac. 40:577). Dephosphorylation reactions were routinely conducted for 5-10 min. using phosphorylase-a as a substrate and for 10-20 min. using phosphohistone. In all assays the dephosphorylation of substrate was kept to less than 10% of the total phosphorylated substrate available, and the reactions were adjusted to ensure that enzyme activity was linear with respect to enzyme concentration and time. [^32 p]Phosphate liberated by the enzymes was extracted as a phosphomolybdate complex and measured according to the methods of Killilea et al. (1978) Arch. Biochem. Biophys. 191:638. Inhibition of protein phosphatase activity by inhibitors was determined by adding the 100 μM of inhibitors to the enzyme mixture 5-10 min. prior to initiating the reaction with the addition of substrate.

PP1 = test: as above; settings: 100 μM inhibitor; none = 100
Protocol: as §1, §2

PP3 = test: as above; settings: 100 μM inhibitor; none = 100
Protocol: as §1, §2

Recombinant human CDC25B = test: CDC25B phosphatase assay, GST fusion protein, fluorescein diphosphate; settings: none = 100; 1 hour preincubation; concentration not given (0.3-100 μM tested)
Protocol: The compounds of the present invention are also capable of inhibiting dual specificity phosphatases, for example CDC25A and CDC25B. Phosphatases CDC25A and CDC25B are disclosed in U.S. Pat. No. 5,441,880. Inhibition of dual specificity phosphatases is defined herein as inhibition of the activity of CDC25A and/or CDC25B at a concentration of 100 μM of the inhibitor compound. In a preferred embodiment, the activity of the phosphatase is inhibited by at least 10%. In more preferred embodiments, the activity of the phophatase is inhibited by at least 25%, or even more preferably, by at least 50%. The ability of the compounds of the present invention to inhibit the phosphatases can be determined by measuring the effect of the compounds on the ability of CDC25 or CDC25B to dephosphorylate a substrate. Appropriate methods are known to those of ordinary skill in the art, and include, for example, calorimetric assays. A suitable assay is described in U.S. Pat. No. 5,441,880, the disclosure of which is incorporated herein by reference. […] The assay may be performed as a rapid calorimetric microtitration plate assay.
Compounds 1a-1r were assessed for ability to inhibit CDC25A and CDC25B activity. Recombinant human CDC25A and CDC25B were obtained as a glutahione-S-transferase (GST) fusion protein using human cDNA and standard molecular biological methods. The cDNA constructs are in a plasmid that is expressed in E. coli under the control of isopropyl-beta-D-[…] (IPTG). The bacterial pellet was disrupted by sonication, and centrifuged at 10,000×g. Using glutathione-agarose beads, the fusion protein was purified from postmicrosomal supernant fraction as described by Baratte et al. (1992) Anticancer Res. 12: 873-880. Phosphatase activity was assayed with a spectrofluorimeter under the following conditions: 1 unit (1 U=amount of protein that induces 33 fluoresence units/minute of product) of fusion protein in a final incubation mixture (150 μL) comprised of 25 mM Tris (pH=8.0), 5 mM EDTA, 33 μg/ml BSA, and 20 μM fluorescein diphosphate in 96-well microtiter plates. Plates were preincubated for 1 hour with 0 (control), 0.3, 1, 3, 10, 30, 100 μM compounds at room temperature. After the 1 hour incubation at room temperature, fluorescence of the fluorescein product (Ex. 485 nm; Em. 530 nm) were measured with a Biosystems Cytofluor II (Framingham, Mass.).

Sequence of PP2A (P67774 whole entry): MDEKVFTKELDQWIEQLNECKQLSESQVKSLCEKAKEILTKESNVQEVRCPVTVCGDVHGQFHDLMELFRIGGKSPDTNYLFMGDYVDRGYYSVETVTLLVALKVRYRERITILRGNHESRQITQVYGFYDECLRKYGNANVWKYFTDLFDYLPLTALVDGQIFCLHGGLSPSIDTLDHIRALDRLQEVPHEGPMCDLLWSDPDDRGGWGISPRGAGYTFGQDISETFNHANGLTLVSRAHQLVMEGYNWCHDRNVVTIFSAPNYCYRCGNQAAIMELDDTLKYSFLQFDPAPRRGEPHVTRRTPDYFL

Compound	PP2A remaining activity, % of control at 100 µM (PP2A)	PP1 remaining activity, percent of control (PP1)	PP3 remaining activity, percent of control (PP3)	CDC25B activity remaining, percent of control (Recombinant human CDC25B)
CCCCCCCCCC(=O)NC(CCC(=O)N(C)CCNC(=O)c1nc(-c2ccccc2)oc1C)C(=O)O (stereo not shown) [Compound 1a]	100%	121%	76%	106%
CCCCCCCCCC(=O)NC(CCC(=O)N(CCNC(=O)c1nc(-c2ccccc2)oc1C)Cc1ccccc1)C(=O)O (stereo not shown) [Compound 1c]	129%		28%	42%
Cc1oc(-c2ccccc2)nc1C(=O)NCCN(Cc1ccccc1)C(=O)CCC(NC(=O)CCc1ccccc1)C(=O)O (stereo not shown) [Compound 1i]	80%		14%	63%
O=C(CCc1ccccc1)NC(CCC(=O)N(CCNC(=O)c1nc(-c2ccccc2)oc1-c1ccccc1)Cc1ccccc1)C(=O)O (stereo not shown) [Compound 1l]	69%	59%	22%	69%
Cc1oc(-c2ccccc2)nc1C(=O)NCCN(Cc1ccccc1)C(=O)CCC(NC(=O)C=Cc1ccccc1)C(=O)O (stereo not shown) [Compound 1o]	88%	64%	13%	66%
CCCCCCN(CCNC(=O)c1nc(-c2ccccc2)oc1C)C(=O)CCC(NC(=O)C=Cc1ccccc1)C(=O)O (stereo not shown) [Compound 1n]	87%	40%	26%	66%
Cc1oc(-c2ccccc2)nc1C(=O)NCCN(C)C(=O)CCC(NC(=O)C=Cc1ccccc1)C(=O)O (stereo not shown) [Compound 1m]	108%	111%	60%	45%
CN(CCNC(=O)c1nc(-c2ccccc2)oc1-c1ccccc1)C(=O)CCC(NC(=O)C=Cc1ccccc1)C(=O)O (stereo not shown) [Compound 1p]	99%	65%	68%	87%
CCCCCCCCCC(=O)NC(CCC(=O)N(CCCCCC)CCNC(=O)c1nc(-c2ccccc2)oc1-c1ccccc1)C(=O)O (stereo not shown) [Compound 1e]	152%	153%	71%	17%
Cc1oc(-c2ccccc2)nc1C(=O)NCCN(C)C(=O)CCC(NC(=O)CCc1ccccc1)C(=O)O (stereo not shown) [Compound 1g]	109%	53%	21%	61%
CCCCCCCCCC(=O)NC(CCC(=O)N(CCCCCC)CCNC(=O)c1nc(-c2ccccc2)oc1C)C(=O)O (stereo not shown) [Compound 1b]	135%	59%	32%	44%
CCCCCCN(CCNC(=O)c1nc(-c2ccccc2)oc1-c1ccccc1)C(=O)CCC(NC(=O)C=Cc1ccccc1)C(=O)O (stereo not shown) [Compound 1q]	60%	85%	28%	62%
CN(CCNC(=O)c1nc(-c2ccccc2)oc1-c1ccccc1)C(=O)CCC(NC(=O)CCc1ccccc1)C(=O)O (stereo not shown) [Compound 1j]	72%	80%	38%	90%
O=C(C=Cc1ccccc1)NC(CCC(=O)N(CCNC(=O)c1nc(-c2ccccc2)oc1-c1ccccc1)Cc1ccccc1)C(=O)O (stereo not shown) [Compound 1r]	68%	53%	15%	56%
CCCCCCN(CCNC(=O)c1nc(-c2ccccc2)oc1-c1ccccc1)C(=O)CCC(NC(=O)CCc1ccccc1)C(=O)O (stereo not shown) [Compound 1k]	67%	48%	24%	76%
